Reference: US9278996B2, “Dolastatin-10 derivative, method of producing the same and anticancer drug composition containing the same” (CELLTRION, INC., priority 2012, dated 2016)
Where two headings read alike, the source gives them in different places.

Tests used:
Format in all cases: cell-based
breast cancer (BT-474) = experiment: Anticancer activity assay (WST-8 cell growth), BT-474; conditions: Homo sapiens, read-out: IC50 (nM) BT-474
Experimental: (§1) The compounds of the present invention were assayed for inhibitory activity against 7 cancer cell lines as breast cancer (BT-474), human epithelial cancer (A-431), non-small cell lung cancer (NCI-H460), colon cancer (HT-29), colon cancer (SW-620), breast cancer (MDA-MB-231) and breast cancer (MCF-7).
(§2) Briefly, a suspension of each cancer cell line was serially diluted, and plated at a density of 2˜3×10^3 cells/well into 96-well microplates, followed by incubation at 37° C. for 4 day in a 5% CO2 atmosphere. Cell growth in a monolayer was measured using WST-8 reagemt (Dojindo, Japan).
(§3) IC50 values of the compounds against the cancer cell lines were calculated as compound concentrations at which the cells were grown by 50% OD of the control.

[1] = system: human epithelial cancer (A-431); experiment: Anticancer activity assay (WST-8 cell growth), A-431
Experimental: as §1, §2, §3

[2] = system: non-small cell lung cancer (NCI-H460); experiment: Anticancer activity assay (WST-8 cell growth), NCI-H460; conditions: read-out: IC50 (nM) NCI-H460
Experimental: as §1, §2, §3

colon cancer (SW-620) = experiment: Anticancer activity assay (WST-8 cell growth), SW-620; conditions: read-out: IC50 (nM) SW-620
Experimental: as §1, §2, §3

breast cancer (MCF-7) = experiment: Anticancer activity assay (WST-8 cell growth), MCF-7; conditions: read-out: IC50 (nM) MCF-7
Experimental: as §1, §2, §3

colon cancer (HT-29) = experiment: Anticancer activity assay (WST-8 cell growth), HT-29; conditions: read-out: IC50 (nM) HT-29
Experimental: as §1, §2, §3

[3] = system: breast cancer (MDA-MB-231); experiment: Anticancer activity assay (WST-8 cell growth), MDA-MB-231; conditions: read-out: IC50 (nM) MDA-MB-231
Experimental: as §1, §2, §3

[4] = A-431, 96 h, read-out: IC50 (nM) A-431

Structure (SMILES): CC[C@H](C)[C@@H]([C@@H](CC(=O)N1C[C@H](OC)C[C@H]1[C@H](OC)[C@@H](C)C(=O)NCC(=O)c1ccc(OC)cc1)OC)N(C)C(=O)[C@@H](NC(=O)[C@@H](NC)C(C)C)C(C)C (stereo in doubt) [Compound I-5, (2S)—N-((3R,4S)-3-methoxy-1-((2R,4R)-4-methoxy-2-((1R,2R)-1-methoxy-3-((2-(4-methoxyphenyl)-2-oxoethyl)amino)-2-methyl-3-oxopropyl)pyrrolidin-1-yl)-5-methyl-1-oxoheptan-4-yl)-N,3-dimethyl-2-((S)-3-methyl-2-(methylamino)butaneamido)butanamide]
- IC50 (breast cancer (BT-474); BT-474, 96 h): 0.53 nM
- IC50 [1, 4]: 61.2 nM

Structure (SMILES): CC[C@H](C)[C@@H]([C@@H](CC(=O)N1C[C@H](OC)C[C@@H]1[C@H](OC)[C@@H](C)C(=O)NCCc1ccc(F)cc1)OC)N(C)C(=O)[C@@H](NC(=O)[C@@H](NC)C(C)C)C(C)C [Compound I-3, (S)—N-((3R,4S,5S)-1-((2R,4R)-2-((1R,2R)-3-((4-fluorophenethyl)amino)-1-methoxy-2-methyl-3-oxopropyl)-4-methoxypyrrolidin-1-yl)-3-methoxy-5-methyl-1-oxoheptan-4-yl)-N,3-dimethyl-2-((S)-3-methyl-2-(methylamino)butaneamido)butanamide]
- IC50 (breast cancer (BT-474); BT-474, 96 h): 1.1 nM
- IC50 [1, 4]: 37.9 nM

Structure (SMILES): CC[C@H](C)[C@@H]([C@@H](CC(=O)N1C[C@H](OC)CC1[C@H](OC)[C@@H](C)C(=O)NCCc1cc(F)c(Cl)cc1Cl)OC)N(C)C(=O)[C@@H](NC(=O)[C@@H](NC)C(C)C)C(C)C (some centres unmarked) [Compound I-4]
- IC50 (breast cancer (BT-474); BT-474, 96 h): 2.44 nM
- IC50 [1, 4]: 21.1 nM

Structure (SMILES): CC[C@H](C)[C@@H]([C@@H](CC(=O)N1C[C@H](O)C[C@@H]1[C@H](OC)[C@@H](C)C(=O)NCCc1ccccc1)OC)N(C)C(=O)[C@@H](NC(=O)[C@H](C(C)C)N(C)C)C(C)C [Compound I-8, (S)-2-((S)-2-(dimethylamino)-3-methylbutaneamido)-N-((3R,4S,5S)-1-((2R,4R)-4-hydroxy-2-((1R,2R)-1-methoxy-2-methyl-3-oxo-3-(phenethylamino)propyl)pyrrolidin-1-yl)-3-methoxy-5-methyl-1-oxoheptan-4-yl)-N,3-dimethylbutanamide]
- IC50 (breast cancer (BT-474); BT-474, 96 h): 0.68 nM
- IC50 ([2]; Homo sapiens, NCI-H460, 96 h): 1.5 nM
- IC50 (colon cancer (SW-620); Homo sapiens, SW-620, 96 h): 2.9 nM
- IC50 (breast cancer (MCF-7); Homo sapiens, MCF7, 96 h): 27 nM

Structure (SMILES): CC[C@H](C)[C@@H]([C@@H](CC(=O)N1CC(=O)C[C@@H]1[C@H](OC)[C@@H](C)C(=O)NCCc1ccccc1)OC)N(C)C(=O)[C@@H](NC(=O)[C@H](C(C)C)N(C)C)C(C)C [Compound I-9, (S)-2-((S)-2-(dimethylamino)-3-methylbutaneamido)-N-((3R,4S,5S)-3-methoxy-1-((R)-2-((1R,2R)-1-methoxy-2-methyl-3-oxo-3-(phenethylamino)propyl)-4-oxopyrrolidin-1-yl)-5-methyl-1-oxoheptan-4-yl)-N,3-dimethylbutanamide]
- IC50 (breast cancer (BT-474); BT-474, 96 h): 5.23 nM
- IC50 ([2]; Homo sapiens, NCI-H460, 96 h): 10.9 nM
- IC50 (colon cancer (SW-620); Homo sapiens, SW-620, 96 h): 27.7 nM
- IC50 (breast cancer (MCF-7); Homo sapiens, MCF7, 96 h): 27 nM

Structure (SMILES): CC[C@H](C)[C@@H]([C@@H](CC(=O)N1C[C@@H](OC)C[C@H]1[C@H](OC)[C@@H](C)C(=O)NCCc1ccccc1)OC)N(C)C(=O)[C@@H](NC(=O)[C@@H](NC)C(C)C)C(C)C [Compound I-33, (2S)—N-((3R,4S)-3-methoxy-1-((2S,45)-4-methoxy-2-((1R,2R)-1-methoxy-2-methyl-3-oxo-3-(phenethylamino)propyl)pyrrolidin-1-yl)-5-methyl-1-oxoheptan-4-yl)-N,3-dimethyl-2-((S)-3-methyl-2-(methylamino)butaneamido)butanamide]
- IC50 (breast cancer (BT-474); BT-474, 96 h): 0.68 nM
- IC50 ([2]; Homo sapiens, NCI-H460, 96 h): 9.4 nM
- IC50 (colon cancer (HT-29); Homo sapiens, HT-29, 96 h): 2.82 nM
- IC50 (colon cancer (SW-620); Homo sapiens, SW-620, 96 h): 5.49 nM
- IC50 ([3]; Homo sapiens, MDA-MB-231, 96 h): 2.23 nM
- IC50 (breast cancer (MCF-7); Homo sapiens, MCF7, 96 h): 1.82 nM

Structure (SMILES): CC[C@H](C)[C@@H]([C@@H](CC(=O)N1C[C@H](OC)C[C@H]1[C@H](OC)[C@@H](C)C(=O)NCC(=O)c1ccccc1)OC)N(C)C(=O)[C@@H](NC(=O)[C@@H](NC)C(C)C)C(C)C [Compound I-34]
- IC50 (breast cancer (BT-474); BT-474, 96 h): 9.71 nM
- IC50 ([2]; Homo sapiens, NCI-H460, 96 h): 10.9 nM

Structure (SMILES): CC[C@H](C)[C@@H]([C@@H](CC(=O)N1C[C@H](OC)C[C@H]1[C@H](OC)[C@@H](C)C(=O)NCC(O)c1ccccc1)OC)N(C)C(=O)[C@@H](NC(=O)[C@@H](NC)C(C)C)C(C)C (stereo partly drawn) [Compound I-35, (2S)—N-((3R,4S)-1-((2S,4R)-2-((1R,2R)-3-(2-(2-hydroxy-2-phenylethyl)amino)-1-methoxy-2-methyl-3-oxopropyl)-4-methoxypyrrolidin-1-yl)-3-methoxy-5-methyl-1-oxoheptan-4-yl)-N,3-dimethyl-2-((S)-3-methyl-2-(methylamino)butaneamido)butanamide]
- IC50 (breast cancer (BT-474); BT-474, 96 h): 0.23 nM
- IC50 ([2]; Homo sapiens, NCI-H460, 96 h): 1.5 nM
- IC50 (colon cancer (HT-29); Homo sapiens, HT-29, 96 h): 4.2 nM
- IC50 (colon cancer (SW-620); Homo sapiens, SW-620, 96 h): 2.1 nM

Structure (SMILES): CC[C@H](C)[C@@H]([C@@H](CC(=O)N1C[C@@H](O)C[C@H]1[C@H](OC)[C@@H](C)C(=O)N[C@@H](C)C(=O)c1ccc(F)cc1)OC)N(C)C(=O)[C@@H](NC(=O)[C@@H](NC)C(C)C)C(C)C [Compound I-43, (2S)—N-((3R,4S)-1-((2S,4S)-2-((1R,2R)-3-(((S)-1-(4-fluorophenyl)-1-oxopropan-2-yl)amino)-1-methoxy-2-methyl-3-oxopropyl)-4-hydroxypyrrolidin-1-yl)-3-methoxy-5-methyl-1-oxoheptan-4-yl)-N,3-dimethyl-2-((S)-3-methyl-2-(methylamino)butaneamido)butanamide]
- IC50 (breast cancer (BT-474); BT-474, 96 h): 6.43 nM

Structure (SMILES): CC[C@H](C)[C@@H]([C@@H](CC(=O)N1C[C@@H](N)C[C@H]1[C@H](OC)[C@@H](C)C(=O)NCCc1c(F)cccc1F)OC)N(C)C(=O)[C@@H](NC(=O)[C@H](C(C)C)N(C)C)C(C)C [Compound I-44, (2S)—N-((3R,4S)-1-((2S,4S)-4-amino-2-((1R,2R)-3-((2,6-difluorophenethyl)amino)-1-methoxy-2-methyl-3-oxopropyl)pyrrolidin-1-yl)-3-methoxy-5-methyl-1-oxoheptan-4-yl)-2-((S)-2-(dimethylamino)-3-methylbutaneamido)-N,3-dimethylbutanamide]
- IC50 (breast cancer (BT-474); BT-474, 96 h): 0.17 nM

Structure (SMILES): CC[C@H](C)[C@@H]([C@@H](CC(=O)N1C[C@@H](NC)C[C@H]1[C@H](OC)[C@@H](C)C(=O)NCCc1c(F)cccc1F)OC)N(C)C(=O)[C@@H](NC(=O)[C@H](C(C)C)N(C)C)C(C)C [Compound I-45, (2S)—N-((3R,4S)-1-((2S,4S)-2-((1R,2R)-3-((2,6-difluorophenethyl)amino)-1-methoxy-2-methyl-3-oxopropyl)-4-(methylamino)pyrrolidin-1-yl)-3-methoxy-5-methyl-1-oxoheptan-4-yl)-2-((S)-2-(dimethylamino)-3-methylbutaneamido)-N,3-dimethylbutanamide]
- IC50 (breast cancer (BT-474); BT-474, 96 h): 0.34 nM

Structure (SMILES): COc1cccc2c1C(=O)c1c(O)c3c(c(O)c1C2=O)C[C@@](O)(C(=O)CO)C[C@@H]3O[C@H]1C[C@H](N)[C@H](O)[C@H](C)O1 [Doxorubcin, reference compound]
- IC50 ([2]; NCI-H460 cells, 4 day incubation, WST-8): 150 nM
- IC50 (colon cancer (HT-29); HT-29 cells, 4 day incubation, WST-8): 1.81 nM
- IC50 (colon cancer (SW-620); SW-620 cells, 4 day incubation, WST-8): 290 nM
- IC50 ([3]; MDA-MB-231 cells, 4 day incubation, WST-8): 850 nM
- IC50 (breast cancer (MCF-7); MCF-7 cells, 4 day incubation, WST-8): 460 nM

Structure (SMILES): CC(=O)O[C@H]1C(=O)[C@@]2(C)[C@H]([C@H](OC(=O)c3ccccc3)[C@]3(O)C[C@H](OC(=O)[C@H](O)[C@@H](NC(=O)c4ccccc4)c4ccccc4)C(C)=C1C3(C)C)[C@]1(OC(C)=O)CO[C@@H]1C[C@@H]2O [Paclitaxel, reference compound]
- IC50 (breast cancer (BT-474); 96 h, BT-474 cells, 4 day incubation, WST-8): 14.4 nM
- IC50 ([1]; 96 h, A-431 cells, 4 day incubation, WST-8, read-out: IC50 (nM) A-431): 442 nM
- IC50 ([2]; Homo sapiens, 96 h, NCI-H460 cells, 4 day incubation, WST-8): 26.8 nM
- IC50 (colon cancer (HT-29); Homo sapiens, 96 h, HT-29 cells, 4 day incubation, WST-8): 19.5 nM
- IC50 (colon cancer (SW-620); Homo sapiens, 96 h, SW-620 cells, 4 day incubation, WST-8): 26.8 nM
- IC50 ([3]; Homo sapiens, 96 h, MDA-MB-231 cells, 4 day incubation, WST-8): 90 nM
- IC50 (breast cancer (MCF-7); Homo sapiens, MCF7, 96 h, MCF-7 cells, 4 day incubation, WST-8): 27.1 nM
